Patent US20260234130A1, “EP2 Antagonist Compounds” (Reservoir Neuroscience, Inc., priority 2022, published 2026)

Target: T1, EP2 receptor (Homo sapiens, UniProt P43116)
T1 construct: expressed in transfected cells; host or cells: CHO-K1 cells (ATCC), transient transfection with FuGENE 6
Test: EP2 potency assay (cAMP TR-FRET, LANCE Ultra cAMP kit) in transfected CHO-K1 cells stimulated with PGE2 at EC80
Type: cell-based
Details: Table (V), EP2 antagonism, CHO-K1 cells expressing EP2, PGE2 at EC80
Description: Compound potency was measured using a cAMP TR-FRET assay. CHO-K1 cells (ATCC) were seeded at a density of 9.75×105 in 6 cm plates, and then on the following day cell media was changed to Opti-Mem I reduced serum media (Gibco), and transfected with a plasmid for expression of the EP2 receptor (the target receptor of interest), using the FuGENE 6 Transfection reagent (Promega). After 6 hours incubation, the cell media was replaced with F12 medium supplemented with 10% FBS and 100 U/ml Pen-Strep. 24 hours after transfection, cells were harvested and seeded at a density of 3000 cells/well in a 384 well plate to perform the cAMP assay, using the LANCE Ultra cAMP assay kit (PerkinElmer). For each test compound of interest, 10 nl/well of serially diluted test compound was added to each well, resulting in a range of 10 serially diluted compound concentrations from 10000 nM to 0.038 nM, with duplicate wells for each concentration. Plates were then centrifuged at 1000 rpm for 1 min, agitated at 600 rpm at R.T. for 2 min, and incubated at 25° C. for 5 min. The reference agonist, prostaglandin E2 (MCE), was added to each well at the appropriate concentration to reach its EC80 value. Plates were then centrifuged at 1000 rpm for 1 min, agitated at 600 rpm at R.T. for 2 min, and incubated at 25° C. for 30 min. To measure levels of cAMP, 5 μl/well of Eu-cAMP working solution and 5 μl/well of Ulight-anti-cAMP working solution were added to each well, and the plate was centrifuged at 1000 rpm for 1 min, agitated at 600 rpm at R.T. for 2 min, and incubated at 25° C. for 15 min. Levels of TR-FRET fluorescence were measured in each well using an EnVision microplate reader (excitation wavelength=337 nm and emission wavelength=615 and 665 nm). A dose-response curve was prepared by plotting percent inhibition for each compound concentration, and then IC50 was calculated by fitting a curve to the plotted values and extrapolating the IC50 concentration. […] Potency data is grouped into categories of AA (IC50<100 nM); A (IC50=100 to 500 nM); B (IC50=500 nM to […]); C (IC50=1 μM to 5 μM); and D (IC50>5 μM).

T1 sequence (P43116 whole entry): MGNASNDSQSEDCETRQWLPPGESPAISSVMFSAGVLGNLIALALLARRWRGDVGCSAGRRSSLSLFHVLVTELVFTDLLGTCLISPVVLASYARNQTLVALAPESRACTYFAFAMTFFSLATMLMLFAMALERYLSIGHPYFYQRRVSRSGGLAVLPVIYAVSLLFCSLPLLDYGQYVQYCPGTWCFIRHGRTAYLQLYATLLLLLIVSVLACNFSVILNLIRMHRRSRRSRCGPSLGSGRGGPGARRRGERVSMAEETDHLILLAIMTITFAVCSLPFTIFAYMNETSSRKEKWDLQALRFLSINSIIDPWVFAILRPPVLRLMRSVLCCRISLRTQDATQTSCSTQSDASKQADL

Row | SMILES | IC50 [nM]
1 | Nc1cc(CN2CCOc3c(Cl)cc(-n4ccc5cc(F)ccc54)cc3C2)cnn1 [II-23, 5-((9-chloro-7-(5-fluoro-1H-indol-1-yl)-2,3-dihydrobenzo[f][1,4]oxazepin-4(5H)-yl)methyl)pyridazin-3-amine] | 500 to 1000
2 | Cc1nc(=O)[nH]c(C)c1CN1CCOc2c(Cl)cc(-n3ccc4cc(F)ccc43)cc2C1 [II-24, 5-((9-chloro-7-(5-fluoro-1H-indol-1-yl)-2,3-dihydrobenzo[f][1,4]oxazepin-4(5H)-yl)methyl)-4,6-dimethylpyrimidin-2(1H)-one] | 500 to 1000
3 | Fc1ccc2c(ccn2-c2cc(Cl)c3c(c2)CN(Cc2cnc(C4=NCCN4)nc2)CCO3)c1 [II-26, 9-chloro-4-((2-(4,5-dihydro-1H-imidazol-2-yl)pyrimidin-5-yl)methyl)-7-(5-fluoro-1H-indol-1-yl)-2,3,4,5-tetrahydrobenzo[f][1,4]oxazepine] | > 5000
4 | Cc1nc(Cl)nc(C)c1CN1CCOc2c(Cl)cc(-n3ccc4cc(F)ccc43)cc2C1 [II-28, 9-chloro-4-((2-chloro-4,6-dimethylpyrimidin-5-yl)methyl)-7-(5-fluoro-1H-indol-1-yl)-2,3,4,5-tetrahydrobenzo[f][1,4]oxazepine] | 1000 to 5000
5 | COc1ncncc1CN1CCOc2c(Cl)cc(-n3ccc4cc(F)ccc43)cc2C1 [II-29, 9-chloro-7-(5-fluoro-1H-indol-1-yl)-4-((4-methoxypyrimidin-5-yl)methyl)-2,3,4,5-tetrahydrobenzo[f][1,4]oxazepine] | 500 to 1000
6 | Fc1ccc2c(ccn2-c2cc(Cl)c3c(c2)CN(Cc2cnc4[nH]ncc4c2)CCO3)c1 [II-31, 4-((1H-pyrazolo[3,4-b]pyridin-5-yl)methyl)-9-chloro-7-(5-fluoro-1H-indol-1-yl)-2,3,4,5-tetrahydrobenzo[f][1,4]oxazepine] | 1000 to 5000

More lines, now with the values ahead:

Row | IC50 [nM] | SMILES
7 | < 100 | Fc1ccc2c(ccn2-c2cc(Cl)c3c(c2)CN(Cc2cnc(-c4nnn[nH]4)nc2)CCO3)c1 [II-22, 4-((2-(1H-tetrazol-5-yl)pyrimidin-5-yl)methyl)-9-chloro-7-(5-fluoro-1H-indol-1-yl)-2,3,4,5-tetrahydrobenzo[f][1,4]oxazepine]
8 | < 100 | CS(=O)(=O)NC(=O)c1ncc(CN2CCOc3c(Cl)cc(-n4ccc5cc(F)ccc54)cc3C2)cn1 [II-25, 5-((9-chloro-7-(5-fluoro-1H-indol-1-yl)-2,3-dihydrobenzo[f][1,4]oxazepin-4(5H)-yl)methyl)-N-(methylsulfonyl)pyrimidine-2-carboxamide]
9 | 100 to 500 | Fc1ccc2c(ccn2-c2cc(Cl)c3c(c2)CN(Cc2cnc4[nH]ccc4c2)CCO3)c1 [II-27, 4-((1H-pyrrolo[2,3-b]pyridin-5-yl)methyl)-9-chloro-7-(5-fluoro-1H-indol-1-yl)-2,3,4,5-tetrahydrobenzo[f][1,4]oxazepine]
10 | 100 to 500 | Cn1ncc(CN2CCOc3c(Cl)cc(-n4ccc5cc(F)ccc54)cc3C2)cc1=O [II-32, 5-((9-chloro-7-(5-fluoro-1H-indol-1-yl)-2,3-dihydrobenzo[f][1,4]oxazepin-4(5H)-yl)methyl)-2-methylpyridazin-3(2H)-one]
11 | < 100 | COc1ncc(CN2CCOc3c(Cl)cc(-n4ncc5cc(F)ccc54)cc3C2)cn1 [II-33, 9-chloro-7-(5-fluoro-1H-indazol-1-yl)-4-((2-methoxypyrimidin-5-yl)methyl)-2,3,4,5-tetrahydrobenzo[f][1,4]oxazepine]
12 | < 100 | Nc1ncc(CN2CCOc3c(Cl)cc(-n4ccc5c(F)c(F)ccc54)cc3C2)cn1 [II-36, 5-((9-chloro-7-(4,5-difluoro-1H-indol-1-yl)-2,3-dihydrobenzo[f][1,4]oxazepin-4(5H)-yl)methyl)pyrimidin-2-amine]
13 | < 100 | O=c1ncc(CN2CCOc3c(Cl)cc(-c4coc5cc(F)ccc45)cc3C2)c[nH]1 [II-38, 5-((9-chloro-7-(6-fluorobenzofuran-3-yl)-2,3-dihydrobenzo[f][1,4]oxazepin-4(5H)-yl)methyl)pyrimidin-2(1H)-one]
